Legend:
OVCAR-3 (Ovarian) = assay: NCI human tumor cell line growth inhibition, OVCAR-3; type: cell-based; conditions: Ovarian OVCAR-3, 48 hours
Description: (§1) The only difference is historical usage.
(§2) Percent Growths are calculated for each dose.
(§3) This is the "baseline count", or "Tzero reading".

SF-295 (CNS) = assay: NCI human tumor cell line growth inhibition, SF-295; type: cell-based; conditions: CNS SF-295, 48 hours
Description: as §1, §2, §3

NCI-H460 (Lung-NSC) = assay: NCI human tumor cell line growth inhibition, NCI-H460; type: cell-based; conditions: Lung-NSC NCI-H460, 48 hours
Description: as §1, §2, §3

KM20L2 (Colon) = assay: NCI human tumor cell line growth inhibition, KM20L2; type: cell-based; conditions: Colon KM20L2, 48 hours
Description: as §1, §2, §3

SK-MEL-5 (Melanoma) = assay: NCI human tumor cell line growth inhibition, SK-MEL-5; type: cell-based; conditions: Melanoma SK-MEL-5, 48 hours
Description: as §1, §2, §3

PS-388 (Mouse Leukemia) = assay: P-388 mouse leukemia cell growth inhibition; type: cell-based; conditions: Mouse Leukemia PS-388
Description: as §1, §2, §3

A498 (Renal) = conditions: Renal A498, 48 hours;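 note: NCI protocol, compound given at five doses from 0.01 to 100 µg/ml, percent growth versus untreated controls relative to cell count at time zero, regression on log dose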
Description: The following measures are used to express drug activity by giving the drug dose which reduces cell growth to a specified percentage of growth:
There is no mathematical difference between ED50 and GI50, which are both calculated using the same formula. The only difference is historical usage.
TGI, (Total Growth Inhibition), is the drug dose needed to yield zero percent growth, i.e., just as many cells at the end of the experiment as were present in the beginning. Whether just as many cells were killed as were produced (steady state), or no growth occurred (total inhibition), cannot be distinguished.
Each drug is tested at five (5) doses: 100-10-1-0.1-0.01 μg/ml. Percent Growths are calculated for each dose. […] The log of the dose is used during the regression computation.
At the start of an experiment, cells from the in vitro cell cultures are inoculated into the appropriate tubes or microtiter plates. One set of control tubes/plates is immediately counted to determine the number of cells at the start of the experiment. This is the "baseline count", or "Tzero reading". At the end of the experiment (48 hours later) a second set of control tubes/plates is analyzed to determine the "Control Growth" value. The growth (or death) of cells relative to the initial quantity of cells is used to define the "Percent of Growth".

Row | Substance | GI-50 (OVCAR-3 (Ovarian)) | TGI (OVCAR-3 (Ovarian)) | GI-50 (SF-295 (CNS)) | TGI (SF-295 (CNS)) | GI-50 (NCI-H460 (Lung-NSC)) | TGI (NCI-H460 (Lung-NSC)) | GI-50 (KM20L2 (Colon)) | TGI (KM20L2 (Colon)) | GI-50 (SK-MEL-5 (Melanoma)) | TGI (SK-MEL-5 (Melanoma)) | ED-50 (PS-388 (Mouse Leukemia)) | GI-50 (A498 (Renal)) | TGI (A498 (Renal)) | LC-50 (OVCAR-3 (Ovarian)) | LC-50 (SF-295 (CNS)) | LC-50 (NCI-H460 (Lung-NSC)) | LC-50 (KM20L2 (Colon)) | LC-50 (SK-MEL-5 (Melanoma)) | LC-50 (A498 (Renal))
1 | L-Dolavalyl-L-Valyl-N-Methyl-(S,S,R)-Dolaisoleuinyl-(S,R,R)-Dolaproinyl-L- (p-Chloro)phenylalanine N-2-(6-Chloro)benzothiazole Amide [9l] | 0.000018 µg/mL | 0.071 ng/mL | 0.000036 µg/mL | > 0.1 ng/mL | 0.000043 µg/mL | > 0.1 ng/mL | 0.000031 µg/mL | 0.096 ng/mL | 0.0000061 µg/mL | > 0.1 ng/mL | 0.000458 µg/mL | 0.000059 µg/mL | > 0.1 ng/mL |  |  |  |  |  | 
2 | L-Dolavalyl-L-Valyl-N-Methyl-(S,S,R)-Dolaisoleuinyl-(S,R,R)-Dolaproinyl-L- Isoleucine N-3-Quinoline Amide [9s] | 0.000018 µg/mL | 0.079 ng/mL | 0.000028 µg/mL | > 0.1 ng/mL | 0.000027 µg/mL | > 0.1 ng/mL | 0.00003 µg/mL | > 0.1 ng/mL | 0.0000039 µg/mL | > 0.1 ng/mL | 0.00352 µg/mL | 0.000065 µg/mL | > 0.1 ng/mL | > 0.0001 µg/mL | > 0.0001 µg/mL | > 0.0001 µg/mL | > 0.0001 µg/mL | > 0.0001 µg/mL | > 0.0001 µg/mL
3 | L-Dolavalyl-L-Valyl-N-Methyl-(S,S,R)-Dolaisoleuinyl-(S,R,R)-Dolaproinyl-L- Methionine N-1-(2-p-Chlorophenylethyl) Amide [9i] | 0.000017 µg/mL | 0.072 ng/mL | 0.000026 µg/mL | > 1 ng/mL | 0.0000032 µg/mL | 0.011 ng/mL | 0.0000048 µg/mL | 0.13 ng/mL | 0.0000012 µg/mL | 0.43 ng/mL | 0.000111 µg/mL | 0.000067 µg/mL | > 1 ng/mL | > 0.001 µg/mL | > 0.001 µg/mL | > 0.001 µg/mL | > 0.001 µg/mL | > 0.001 µg/mL | > 0.001 µg/mL
4 | L-Dolavalyl-L-Valyl-N-Methyl-(S,S,R)-Dolaisoleuinyl-(S,R,R)-Dolaproinyl-L- Methionine N-2,5-Dichlorophenyl Amide [9g] | 0.00014 µg/mL | 0.51 ng/mL | 0.00013 µg/mL | > 1 ng/mL | 0.00017 µg/mL | 0.66 ng/mL | 0.00015 µg/mL | 0.61 ng/mL | 0.000062 µg/mL | 0.65 ng/mL | 0.000125 µg/mL | 0.00036 µg/mL | > 1 ng/mL | > 0.001 µg/mL | > 0.001 µg/mL | > 0.001 µg/mL | > 0.001 µg/mL | > 0.001 µg/mL | > 0.001 µg/mL
5 | L-Dolavalyl-L-Valyl-N-Methyl-(S,S,R)-Dolaisoleuinyl-(S,R,R)-Dolaproinyl-L- Methionine N-2-Benzothiazole Amide [9m] | 0.0000016 µg/mL | 0.011 ng/mL | 0.000022 µg/mL | > 0.1 ng/mL | 0.000011 µg/mL | 0.08 ng/mL | 0.0000041 µg/mL | > 0.1 ng/mL | 0.0000024 µg/mL | > 0.1 ng/mL | 0.000243 µg/mL | 0.000016 µg/mL | > 0.1 ng/mL |  |  |  |  |  | 
6 | L-Dolavalyl-L-Valyl-N-Methyl-(S,S,R)-Dolaisoleuinyl-(S,R,R)-Dolaproinyl-L- Methionine N-2-Chlorophenyl Amide [9b] | 0.000028 µg/mL | 0.091 ng/mL | 0.000036 µg/mL | > 1 ng/mL | 0.000031 µg/mL | 0.11 ng/mL | 0.000034 µg/mL | 0.18 ng/mL | 0.00002 µg/mL | > 1 ng/mL | 0.000211 µg/mL | 0.000073 µg/mL | > 1 ng/mL | > 0.001 µg/mL | > 0.001 µg/mL | > 0.001 µg/mL | > 0.001 µg/mL | > 0.001 µg/mL | > 0.001 µg/mL
7 | L-Dolavalyl-L-Valyl-N-Methyl-(S,S,R)-Dolaisoleuinyl-(S,R,R)-Dolaproinyl-L- Methionine N-2-Pyridyl Amide [9o] | 0.000032 µg/mL | 0.22 ng/mL | 0.00016 µg/mL | > 1 ng/mL | 0.00012 µg/mL | 0.59 ng/mL | 0.000033 µg/mL | 0.31 ng/mL | 0.000016 µg/mL | 0.6 ng/mL | 0.000262 µg/mL | 0.00023 µg/mL | > 1 ng/mL | > 0.001 µg/mL | > 0.001 µg/mL | > 0.001 µg/mL | > 0.001 µg/mL | > 0.001 µg/mL | > 0.001 µg/mL
8 | L-Dolavalyl-L-Valyl-N-Methyl-(S,S,R)-Dolaisoleuinyl-(S,R,R)-Dolaproinyl-L- Methionine N-3-Chlorophenyl Amide [9c] | 0.000011 µg/mL | 0.1 ng/mL | 0.000031 µg/mL | > 1 ng/mL | 0.000025 µg/mL | 0.11 ng/mL | 0.000023 µg/mL | 0.1 ng/mL | 0.0000013 µg/mL | 0.26 ng/mL | 0.00000264 µg/mL | 0.000084 µg/mL | > 1 ng/mL | > 0.001 µg/mL | > 0.001 µg/mL | > 0.001 µg/mL | > 0.001 µg/mL | > 0.001 µg/mL | > 0.001 µg/mL
9 | L-Dolavalyl-L-Valyl-N-Methyl-(S,S,R)-Dolaisoleuinyl-(S,R,R)-Dolaproinyl-L- Methionine N-3-Quinoline Amide [9p] | 0.00000032 µg/mL | 0.01 ng/mL | 0.000004 µg/mL | > 0.1 ng/mL | 0.0000031 µg/mL | 0.017 ng/mL | 0.00000065 µg/mL | > 0.1 ng/mL | 0.00000038 µg/mL | > 0.1 ng/mL | 0.000356 µg/mL | 0.000008 µg/mL | > 0.1 ng/mL | > 0.0001 µg/mL | > 0.0001 µg/mL | > 0.0001 µg/mL | > 0.0001 µg/mL | > 0.0001 µg/mL | > 0.0001 µg/mL

Source: US5663149A, “Human cancer inhibitory pentapeptide heterocyclic and halophenyl amides” (priority 1994, dated 1997)
